Laboratory results reported in patent publication US20240000794A1, “LACTAM AND LACTONE DERIVATIVES FOR USE IN THE TREATMENT OF A VIRAL INFECTION SUCH AS COVID-19” (UNIVERSITÉ CATHOLIQUE DE LOUVAIN, priority 2020, published 2024).
Read-outs that look alike come from different tables or passages of the source.

How the values were obtained:
SARS-CoV-2 [1] = format: cell-based; conditions: primary nasal epithelial cells, 10 μM or 1 μM, 48 h post-infection
SARS-CoV-2 [2] = format: cell-based; conditions: Calu-3 human lung cells, MOI 0.01, 24 hours post-infection
SARS-CoV-2 [3] = format: cell-based; conditions: Caco-2 cells, MOI 0.01, 24 hours post-infection
[4] = system: syncytia formation in SARS-CoV-2 infected Vero cells; format: cell-based
SARS-CoV-2 [5] = format: cell-based; conditions: Caco-2 cells; for reduction of virus production in the supernatants: after 8, 12 and 24 h, at concentrations as low as 1μM; for reduction of SARS-Cov2 RNA levels in infected cells: after 4 hours
SARS-CoV-2 Mpro = SARS-CoV-2 Mpro (Severe acute respiratory syndrome coronavirus 2, UniProt P0DTD1); format: biochemical
[6] = system: syncytia formation in SARS-CoV-2 infected A549-ACE2/TMPRSS2 cells; format: cell-based
SARS-CoV-2 [7] = format: cell-based; conditions: 100 μM compound, 24 hours post-infection
HCoV-OC43 = format: cell-based; conditions: 10 μM, HRT-18G cells
SARS-CoV-2 [8] = format: cell-based; conditions: primary bronchial epithelial cells, 10 μM or 1 μM, 48 h post-infection

| Compound | SARS-Cov2 RNA levels in infected cells (SARS-CoV-2 [1]) | virus production (supernatants titered on Vero cells) (SARS-CoV-2 [1]) | lowest concentration reducing the infectivity of SARS-CoV-2 (SARS-CoV-2 [2]) [nM] | lowest concentration reducing the infectivity of SARS-CoV-2 (SARS-CoV-2 [3]) [nM] | syncytia formation (fusion index) [4] | reduction of virus production in the supernatants (SARS-CoV-2 [5]) | reduction of SARS-Cov2 RNA levels in infected cells (SARS-CoV-2 [5]) | inhibition of SARS-CoV-2 Mpro (SARS-CoV-2 Mpro; 10 μM compound, Mpro at 2 μM) | inhibition of SARS-CoV-2 Mpro (SARS-CoV-2 Mpro; 100 μM compound) | syncytia formation (fusion index) [6] | infectivity of SARS-CoV2 in Vero cells (SARS-CoV-2 [7]) | activity on HCov-OC43 (HCoV-OC43) | SARS-Cov2 RNA levels in infected cells (SARS-CoV-2 [8]) | virus production (supernatants titered on Vero cells) (SARS-CoV-2 [8]) |
| --- | --- | --- | --- | --- | --- | --- | --- | --- | --- | --- | --- | --- | --- | --- |
| O=C1CSC[C@@H](C(=O)O)N1 [lactam 2, (R)-5-oxothiomorpholine-3-carboxylic acid] | reduction in SARS-Cov2 RNA levels | reduction of virus production | 45 | 45 | reducing syncytia formation | about 100 fold | about 20% | about 50% | complete inhibition | reducing syncytia formation | reducing the infectivity | active | reduction in SARS-Cov2 RNA levels | reduction of virus production |
| O=C1CCC[C@@H](C(=O)O)N1 [lactam 3, (S)-6-oxopiperidine-2-carboxylic acid] |  |  |  | 15 |  | about 100 fold | about 20% |  |  |  |  |  |  |  |
